Assay results as given in US20150191459A1, “CATHEPSIN INHIBITORS” (ViroBay, Inc., priority 2013, published 2015).

Biological target: Human cathepsin B (Homo sapiens, UniProt P07858)
Assay: Cathepsin B Assay
Type: biochemical
Details: apparent inhibition constant; Boc-Leu-Arg-Arg-AMC substrate; pH 6; 30 minutes pre-incubation; read-out: cat B Ki
Protocol: Solutions of test compounds in varying concentrations were prepared in 10 μL of dimethyl sulfoxide (DMSO) and then diluted into assay buffer (40 μL, comprising: N,N-bis(2-hydroxyethyl)-2-aminoethanesulfonic acid (BES), 50 mM (pH 6); polyoxyethylenesorbitan monolaurate, 0.05%; and dithiothreitol (DTT), 2.5 mM). Human cathepsin B (0.025 pMoles in 25 μL of assay buffer) was added to the dilutions. The assay solutions were mixed for 5-10 seconds on a shaker plate, covered and incubated for 30 minutes at ambient temperature. Boc-Leu-Arg-Arg-AMC (20 μM in 1% DMSO) was added to the assay solutions and hydrolysis was followed spectrophotometrically at (λ 460 nm) for 5 minutes. Apparent inhibition constants (Ki) were calculated from the enzyme progress curves using standard mathematical models.

Row | Compound | Ki
1 | CC[C@H](NC(=O)[C@H](Cc1cc(Cl)c(O)c(Cl)c1)N[C@@H](c1ccc(Br)cc1)C(F)(F)F)C(=O)C(=O)NC1CC1 [N-cyclopropyl-3S-{3-[3,5-dichloro-4-hydroxyphenyl)-2S-(2,2,2-trifluoro)-1S-(4-bromophenyl)ethylamino]propionylamino}-2-oxopentanamide] | 1.53 nM
2 | N#CC1(NC(=O)[C@H](Cc2cc(I)c(O)c(I)c2)N[C@@H](c2ccc(Br)cc2)C(F)(F)F)CC1 [N-(1-Cyanocyclopropyl)-2S-[2,2,2-trifluoro-1S-(4-bromophenyl)-ethylamino]-3-(3,5-diiodo-4-hydroxyphenyl)-propanamide] | 13 nM
3 | N#CCNC(=O)[C@H](Cc1cc(I)c(O)c(I)c1)N[C@@H](c1ccc(Br)cc1)C(F)(F)F [N-Cyanomethyl-2S-[2,2,2-trifluoro-1S-(4-bromophenyl)-ethylamino]-3-(3,5-diiodo-4-hydroxyphenyl)-propanamide] | 3.5 nM
4 | N#CC1(NC(=O)[C@H](Cc2cc(Cl)c(O)c(Cl)c2)N[C@@H](c2ccc(F)cc2)C(F)(F)F)CC1 [N-(1-Cyanocyclopropyl)-2S-[2,2,2-trifluoro-1S-(4-fluorophenyl)-ethylamino]-3-(3,5-dichloro-4-hydroxyphenyl)-propanamide] | 130 nM
5 | N#CC1(NC(=O)[C@H](Cc2cc(Cl)c(O)c(Cl)c2)N[C@@H](c2ccc(Br)cc2)C(F)(F)F)CC1 [N-(1-Cyanocyclopropyl)-2S-[2,2,2-trifluoro-1S-(4-bromophenyl)-ethylamino]-3-(3,5-dichloro-4-hydroxyphenyl)-propanamide] | 45 nM

Stronger by Ki, values ahead:

Row | Ki | Compound
6 | 1.28 nM | CC[C@H](NC(=O)[C@H](Cc1cc(I)c(O)c(I)c1)N[C@@H](c1ccc(Br)cc1)C(F)(F)F)C(=O)C(=O)NC1CC1 [N-cyclopropyl-3S-{3-[3,5-diiodo-4-hydroxyphenyl)-2S-(2,2,2-trifluoro)-1S-(4-bromophenyl)ethylamino]propionylamino}-2-oxopentanamide]
7 | ≤ 1 nM | CC[C@H](NC(=O)[C@H](Cc1cc(Cl)c(O)c(Cl)c1)N[C@@H](c1ccc(F)cc1)C(F)(F)F)C(=O)C(=O)NC1CC1 [N-Cyclopropyl-3S-{3-[3,5-dichloro-4-hydroxyphenyl)-2S-(2,2,2-trifluoro)-1S-(4-fluorophenyl)ethylamino]propionylamino}-2-oxopentanamide]
8 | 1.16 nM | CC[C@H](NC(=O)[C@H](Cc1cc(I)c(O)c(I)c1)N[C@@H](c1ccc(F)cc1)C(F)(F)F)C(=O)C(=O)NC1CC1 [N-cyclopropyl-3S-{3-[3,5-diiodo-4-hydroxyphenyl)-2S-(2,2,2-trifluoro)-1S-(4-fluorophenyl)ethylamino]propionylamino}-2-oxopentanamide]
